From US11242346B2, “Mechanistic target of rapamycin signaling pathway inhibitors and therapeutic applications thereof” (SUZHOU KINTOR PHARMACEUTICALS, INC., priority 2016, dated 2022) come the findings set out here.

What is called IC50 is the concentration that inhibits the measured activity by half. One may read the AUC(0-t) as the area under the concentration-time curve up to a stated or last time point. Read a low AUC(0-t) as low exposure. What is called Cmax is the maximum level reached in the sampled fluid or tissue. As a reminder, the MRT is the average time that molecules of a dose stay in the body. In general, half-life refers to the time in which the quantity being followed falls by half. Higher therefore signals slow decline. One may read the Tmax as the time from dosing to the highest level. In general, bioavailability refers to the share of a dose that reaches the circulation, judged against a reference dose that is usually intravenous.

Molecules are shown by their SMILES.

One series addresses PI3Kα (Homo sapiens, UniProt P42336). Kind of series: SelectScreen Profiling, Adapta kinase assay, PI3Kα. The series is classed as biochemical. The following applies: 0.1 μM compound, ATP at Km, read-out: PI3Kα inh % @0.1 μM.
A further series concerns the target mTOR (FRAP1) (Homo sapiens, UniProt P42345). Briefly: SelectScreen Profiling, Z'-LYTE kinase assay, mTOR (FRAP1). The series is classed as biochemical. Particulars: 0.1 μM compound, ATP at Km, read-out: mTOR inh% @0.1 μM. The source says:
(§1) Some of the example compounds were submitted to Life Technologies Corporation SelectScreen® Profiling Service to test their potency in inhibiting the kinase catalytic activities of mTOR, PI3Kα, VEGF2, FGFR1, HER1 (EGFR) and HER2. A concentration of ATP at the Km of the corresponding kinase was used for all assays. The mTOR (FRAP1), VEGF2, FGFR1, HER1 (EGFR) and HER2 assays used Z′-LYTE® technology. The PI3Kα assay used Adapta® technology. The symbol “inh %” as used herein generally refers to inhibition percentage.

In another series the target is VEGF2 (Homo sapiens, UniProt P35968). Kind of series: SelectScreen Profiling, Z'-LYTE kinase assay, VEGF2. The series is classed as biochemical. Particulars: 1 μM compound, ATP at Km, read-out: VEGF 2 inh % @1 μM.
Chain of VEGF2 (P35968 20-1356): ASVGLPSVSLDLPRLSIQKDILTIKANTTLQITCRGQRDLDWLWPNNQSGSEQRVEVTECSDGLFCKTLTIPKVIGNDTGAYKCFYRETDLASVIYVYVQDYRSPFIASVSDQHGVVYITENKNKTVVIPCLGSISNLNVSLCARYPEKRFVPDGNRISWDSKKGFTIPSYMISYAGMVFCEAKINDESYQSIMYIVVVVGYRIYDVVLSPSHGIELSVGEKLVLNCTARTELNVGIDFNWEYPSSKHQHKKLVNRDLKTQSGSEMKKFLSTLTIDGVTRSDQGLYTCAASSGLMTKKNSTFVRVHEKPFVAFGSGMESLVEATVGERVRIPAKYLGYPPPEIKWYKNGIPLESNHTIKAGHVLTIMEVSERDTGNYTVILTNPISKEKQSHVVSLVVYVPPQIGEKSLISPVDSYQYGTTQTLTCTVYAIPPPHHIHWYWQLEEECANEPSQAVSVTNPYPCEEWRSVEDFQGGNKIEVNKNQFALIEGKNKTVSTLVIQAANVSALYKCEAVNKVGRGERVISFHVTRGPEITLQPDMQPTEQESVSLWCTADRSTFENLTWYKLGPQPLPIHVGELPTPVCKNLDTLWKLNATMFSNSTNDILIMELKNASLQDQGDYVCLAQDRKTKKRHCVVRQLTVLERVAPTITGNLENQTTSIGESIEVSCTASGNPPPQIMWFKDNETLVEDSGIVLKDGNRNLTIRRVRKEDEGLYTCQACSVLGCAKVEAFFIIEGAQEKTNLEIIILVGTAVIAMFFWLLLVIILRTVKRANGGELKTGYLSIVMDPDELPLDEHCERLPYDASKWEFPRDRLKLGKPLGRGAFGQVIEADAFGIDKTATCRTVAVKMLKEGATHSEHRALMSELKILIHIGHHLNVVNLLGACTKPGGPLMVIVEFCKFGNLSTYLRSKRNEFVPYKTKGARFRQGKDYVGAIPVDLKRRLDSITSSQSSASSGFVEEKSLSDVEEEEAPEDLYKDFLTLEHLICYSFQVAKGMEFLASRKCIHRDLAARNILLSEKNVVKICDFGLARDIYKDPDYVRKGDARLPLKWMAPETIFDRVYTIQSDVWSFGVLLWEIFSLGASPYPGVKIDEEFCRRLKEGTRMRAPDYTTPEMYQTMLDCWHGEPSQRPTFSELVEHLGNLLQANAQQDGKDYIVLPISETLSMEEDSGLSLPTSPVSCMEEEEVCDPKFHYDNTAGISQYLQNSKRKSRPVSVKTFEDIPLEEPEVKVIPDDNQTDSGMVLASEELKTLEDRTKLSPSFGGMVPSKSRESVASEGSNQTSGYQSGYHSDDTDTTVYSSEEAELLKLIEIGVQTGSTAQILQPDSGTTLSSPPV
Text: as §1

The test system of series [1] is mammalian tumor cell lines such as PC-3, LNCAP, U87, Huh-7, HepG2 and MDA-MB-468. Kind of series: Cell proliferation/survival MTT assay in tumor cell lines. The series is classed as cell-based. Particulars: 5 days (120 h) culture; cell line not specified; read-out: IC50, inhibition of tumor cell growth (MTT). The method, then:
The cytotoxic or cytostatic activity of Formula I-III exemplary compounds was measured by establishing proliferating mammalian tumor cell lines such as PC-3, LNCAP, U87, Huh-7, HepG2 and MDA-MB-468 in a cell culture medium, adding a test compound, culturing the cells for a period of 5 days by measuring cell viability via MTT assays. Dose response data were obtained for each test compound and the degree of inhibition of tumor cell growth was expressed as an IC50 value. […] For example. For example, compounds of example 14, 15, 46,29, 45, 49, 122, 88, 54, 55, 58, 59, 63, 64, 66, 67, 68, 113, 86, 90.
PC-3 (or U87) cells were seeded in 96-well plates at low density (at 2,000 cells per well) in media supplemented with 10% FBS (growth media) and transferred to serum-free media (1% FBS) after 24 h. Designated concentrations of drug were added to each well. The cells were incubated for 120 h. At the end of drug exposure, 20 μL/well of MTT solution was added. After 4 h at 37° C. in a humidified 5% CO2 atmosphere, the absorbance at 490 nm was recorded by using a microplate reader. IC50 was calculated using GraphPad Prism version 5 for Windows. The curves were fit using a nonlinear regression model with a log (inhibitor) versus response formula.
A general note: Tetrazolium dyes change colour on reduction, which living cells bring about.

For a further series, the target named is HER1 (EGFR) (Homo sapiens, UniProt P00533). Briefly: SelectScreen Profiling, Z'-LYTE kinase assay, HER1 (EGFR). The following applies: 1 μM compound, ATP at Km, read-out: HER1 inh % @1 μM. In kind it is biochemical.
Chain of HER1 (EGFR) (P00533 25-1210): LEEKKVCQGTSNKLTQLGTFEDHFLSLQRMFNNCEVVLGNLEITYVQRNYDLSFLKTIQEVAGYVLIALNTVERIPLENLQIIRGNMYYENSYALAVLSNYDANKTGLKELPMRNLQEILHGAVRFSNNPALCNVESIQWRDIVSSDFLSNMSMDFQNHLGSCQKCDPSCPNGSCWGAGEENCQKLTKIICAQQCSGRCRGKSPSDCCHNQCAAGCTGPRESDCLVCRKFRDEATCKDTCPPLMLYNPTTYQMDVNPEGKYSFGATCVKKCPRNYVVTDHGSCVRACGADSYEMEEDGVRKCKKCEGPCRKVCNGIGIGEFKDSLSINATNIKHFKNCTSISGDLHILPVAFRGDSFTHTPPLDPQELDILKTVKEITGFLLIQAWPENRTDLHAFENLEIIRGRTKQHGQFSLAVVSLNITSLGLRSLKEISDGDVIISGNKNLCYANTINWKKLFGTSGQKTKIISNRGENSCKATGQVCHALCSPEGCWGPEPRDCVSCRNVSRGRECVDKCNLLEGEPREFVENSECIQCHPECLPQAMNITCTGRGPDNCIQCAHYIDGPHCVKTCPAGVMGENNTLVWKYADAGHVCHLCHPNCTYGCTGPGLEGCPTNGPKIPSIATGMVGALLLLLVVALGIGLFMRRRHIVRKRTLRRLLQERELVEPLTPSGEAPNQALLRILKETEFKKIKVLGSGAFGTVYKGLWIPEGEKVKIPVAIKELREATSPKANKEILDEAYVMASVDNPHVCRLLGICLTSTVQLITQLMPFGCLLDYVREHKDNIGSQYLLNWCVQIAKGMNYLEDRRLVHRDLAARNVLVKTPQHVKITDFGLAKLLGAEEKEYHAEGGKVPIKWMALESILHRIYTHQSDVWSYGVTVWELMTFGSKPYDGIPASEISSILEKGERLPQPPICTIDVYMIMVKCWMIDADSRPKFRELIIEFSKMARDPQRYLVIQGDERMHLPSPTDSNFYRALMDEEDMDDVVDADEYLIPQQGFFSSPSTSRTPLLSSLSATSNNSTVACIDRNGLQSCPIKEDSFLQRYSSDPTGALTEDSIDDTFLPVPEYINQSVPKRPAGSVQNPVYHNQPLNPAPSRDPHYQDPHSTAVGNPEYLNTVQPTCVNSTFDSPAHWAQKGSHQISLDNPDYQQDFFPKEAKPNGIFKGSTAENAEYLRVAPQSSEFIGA
Text: as §1

Another series concerns the target HER2 (Homo sapiens, UniProt P04626). Briefly: SelectScreen Profiling, Z'-LYTE kinase assay, HER2. The following applies: 1 μM compound, ATP at Km, read-out: HER2 inh % @1 μM. The series is classed as biochemical.
Text: as §1

A further series deals with FGFR1 (Homo sapiens, UniProt P11362). Briefly: SelectScreen Profiling, Z'-LYTE kinase assay, FGFR1. The series is classed as biochemical. The following applies: 1 μM compound, ATP at Km, read-out: FGFR 1 inh % @1 μM.
Chain of FGFR1 (P11362 22-822): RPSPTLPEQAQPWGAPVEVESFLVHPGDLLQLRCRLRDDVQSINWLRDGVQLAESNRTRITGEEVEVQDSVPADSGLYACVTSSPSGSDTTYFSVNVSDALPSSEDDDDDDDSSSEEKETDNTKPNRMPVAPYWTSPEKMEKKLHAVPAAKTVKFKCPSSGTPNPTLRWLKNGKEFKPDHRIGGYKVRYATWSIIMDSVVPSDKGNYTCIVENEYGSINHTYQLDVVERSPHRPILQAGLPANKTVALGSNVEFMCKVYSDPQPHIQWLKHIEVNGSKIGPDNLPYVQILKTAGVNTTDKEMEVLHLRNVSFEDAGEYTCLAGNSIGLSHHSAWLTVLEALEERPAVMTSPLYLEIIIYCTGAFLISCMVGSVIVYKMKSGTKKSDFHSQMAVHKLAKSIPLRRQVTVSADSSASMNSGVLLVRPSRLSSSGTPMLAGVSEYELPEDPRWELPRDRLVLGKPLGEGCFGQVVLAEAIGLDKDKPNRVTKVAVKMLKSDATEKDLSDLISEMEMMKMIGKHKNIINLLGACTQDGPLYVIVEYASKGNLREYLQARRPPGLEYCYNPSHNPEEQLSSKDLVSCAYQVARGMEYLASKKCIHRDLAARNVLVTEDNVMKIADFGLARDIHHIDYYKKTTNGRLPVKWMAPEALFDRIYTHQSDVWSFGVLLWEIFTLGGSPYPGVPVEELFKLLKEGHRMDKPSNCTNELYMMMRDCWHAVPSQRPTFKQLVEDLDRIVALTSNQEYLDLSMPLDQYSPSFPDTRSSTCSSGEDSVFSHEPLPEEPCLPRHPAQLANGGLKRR
Text: as §1

Series [2] in a line: Metabolic stability in human liver microsome (HLM). The following applies: incubation with human liver microsome for 60 min. The series is classed as in vitro ADME. The method, then: (§2) Active mTOR inhibitors in enzymatic and/or cell-based assays herein were evaluated for pharmacokinetic properties. Preferable compounds are with pharmacokinetic properties of low clearance, long half-life and/or good oral bioavailability (Fpo). In vitro, selected example compounds were evaluated for metabolic stability by incubating with human liver microsome (HLM) for 60 min. Compounds that were metabolized slower (i.e. higher % remaining) are preferred. […] The more metabolic stable example compounds in the HLM assay were further evaluated for pharmacokinetic properties in vivo. In a representative experiment, selected example compounds were dosed to rats intravenously (IV, 5 mg/kg, 30% PEG400+30% PG+1% DMSO in saline) and orally (PO, 10 mg/kg, 2.4% DMSO+0.1% Tween80 in 0.5% CMC-Na), rat blood samples were taken at designed time points after dosing and analyzed for tested drug concentrations using LC-MS/MS. Pharmacokinetic parameters were derived from the time curve of drug concentrations.
For orientation: Liver microsomes are a subcellular fraction often used to study metabolism.

Series [3] can be described thus: Rat pharmacokinetic study (IV and PO). In kind it is in vivo. How it is done:
as §2

Chain of PI3Kα (P42336 whole entry): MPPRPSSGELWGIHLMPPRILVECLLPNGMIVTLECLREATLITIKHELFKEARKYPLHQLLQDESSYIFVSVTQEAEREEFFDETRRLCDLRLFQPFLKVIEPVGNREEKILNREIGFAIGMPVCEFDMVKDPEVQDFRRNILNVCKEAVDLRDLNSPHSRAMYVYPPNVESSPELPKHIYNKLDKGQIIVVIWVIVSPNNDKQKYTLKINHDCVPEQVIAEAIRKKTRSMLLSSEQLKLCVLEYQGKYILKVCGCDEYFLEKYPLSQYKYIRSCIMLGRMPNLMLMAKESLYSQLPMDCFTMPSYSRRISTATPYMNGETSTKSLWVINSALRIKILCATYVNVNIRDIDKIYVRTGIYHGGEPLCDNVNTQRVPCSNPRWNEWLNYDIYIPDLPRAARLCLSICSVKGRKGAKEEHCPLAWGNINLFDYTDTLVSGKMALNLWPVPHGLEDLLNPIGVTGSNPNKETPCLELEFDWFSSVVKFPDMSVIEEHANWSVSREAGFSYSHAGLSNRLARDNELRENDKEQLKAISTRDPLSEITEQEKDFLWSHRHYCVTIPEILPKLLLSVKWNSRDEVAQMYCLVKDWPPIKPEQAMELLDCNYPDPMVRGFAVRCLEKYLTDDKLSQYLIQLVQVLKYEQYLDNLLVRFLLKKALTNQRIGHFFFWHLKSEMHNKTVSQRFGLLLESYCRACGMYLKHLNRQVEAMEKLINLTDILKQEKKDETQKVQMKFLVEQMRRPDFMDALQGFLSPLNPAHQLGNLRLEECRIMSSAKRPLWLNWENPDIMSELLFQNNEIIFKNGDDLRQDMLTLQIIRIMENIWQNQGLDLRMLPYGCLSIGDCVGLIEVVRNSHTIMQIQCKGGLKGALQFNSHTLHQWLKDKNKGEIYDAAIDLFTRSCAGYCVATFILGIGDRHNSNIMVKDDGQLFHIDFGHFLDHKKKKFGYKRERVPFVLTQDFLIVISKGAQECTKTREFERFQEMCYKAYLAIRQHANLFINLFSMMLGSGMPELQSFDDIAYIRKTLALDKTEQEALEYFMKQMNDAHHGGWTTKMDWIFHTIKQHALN
Chain of PI3Kα (P27986 whole entry partner): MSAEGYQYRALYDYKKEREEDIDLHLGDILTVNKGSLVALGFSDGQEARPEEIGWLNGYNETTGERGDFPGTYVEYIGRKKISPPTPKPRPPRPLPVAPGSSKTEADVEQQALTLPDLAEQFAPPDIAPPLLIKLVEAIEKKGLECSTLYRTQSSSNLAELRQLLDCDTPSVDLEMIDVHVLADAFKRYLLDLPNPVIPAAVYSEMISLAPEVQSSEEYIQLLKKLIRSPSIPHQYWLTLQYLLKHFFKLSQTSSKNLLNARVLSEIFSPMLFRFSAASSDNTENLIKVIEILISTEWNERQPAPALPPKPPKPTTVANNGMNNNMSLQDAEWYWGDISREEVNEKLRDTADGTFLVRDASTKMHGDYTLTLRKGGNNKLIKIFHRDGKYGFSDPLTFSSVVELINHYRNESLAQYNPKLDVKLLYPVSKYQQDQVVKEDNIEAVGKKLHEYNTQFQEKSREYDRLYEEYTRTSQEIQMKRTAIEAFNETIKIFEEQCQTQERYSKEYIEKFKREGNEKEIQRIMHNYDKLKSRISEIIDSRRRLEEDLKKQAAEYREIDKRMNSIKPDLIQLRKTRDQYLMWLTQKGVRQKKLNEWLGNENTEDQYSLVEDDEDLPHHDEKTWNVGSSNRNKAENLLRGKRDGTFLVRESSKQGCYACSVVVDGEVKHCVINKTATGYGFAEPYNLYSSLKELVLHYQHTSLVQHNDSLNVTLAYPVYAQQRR

Consider `O=C(Nc1ccc(-c2nc(N3CCOCC3)c3cccn3n2)cc1)NC1CC1` [Example 38], for which the values for the inhibition at 0.1 µM at PI3Kα and at mTOR (FRAP1) were -8% and 69%, respectively.

On to `CCNC(=O)Nc1ccc(-c2nc(N3CCOC[C@H]3C)c3cccn3n2)cc1` [Example 4], for which the inhibition at 0.1 µM was 10% on PI3Kα and 72% at mTOR (FRAP1).

In the case of `O=C(Nc1ccc(C(=O)N2CCC(O)CC2)cc1)Nc1ccc(-c2nc(N3CCOCC3)c3cccn3n2)cc1` [Example 55], the inhibition at 1 µM on VEGF2 was 11%; on HER1 (EGFR), 0%; on HER2 it was 5%; on FGFR1, -1%. For the same compound, the IC50 in [1] is under 500 nM. Also, the inhibition at 0.1 µM at mTOR (FRAP1) was found to be 90%. In series [2], the “metabolic stability in HLM” value is on record as “metabolically stable”.

Turning to `CN(C)CCNC(=O)c1ccc(NC(=O)Nc2ccc(-c3nc(N4CCOCC4)c4cccn4n3)cc2)cc1` [Example 45], the inhibition at 1 µM at VEGF2 was 10%; on HER1 (EGFR), -2%; on HER2, -9%; at FGFR1, 4%. The concentration for half-maximal inhibition (IC50) in [1] was under 500 nM. Besides, the inhibition at 0.1 µM was 0% on PI3Kα and 98% on mTOR (FRAP1).

Take `CN(C)[C@@H]1CCN(C(=O)c2ccc(NC(=O)Nc3ccc(-c4nc(N5CCOCC5)c5cccn5n4)cc3)cc2)C1` [Example 58]: the inhibition at 1 µM was 10% on VEGF2, 1% on HER1 (EGFR), -5% on HER2 and 4% at FGFR1. Besides, the IC50 in [1] is under 500 nM. The inhibition at 0.1 µM on mTOR (FRAP1) was determined as 97%.

As to `CN1CCCN(C(=O)c2ccc(NC(=O)Nc3ccc(-c4nc(N5CCOCC5)c5cccn5n4)cc3)cc2)CC1` [Example 59], the inhibition at 1 µM is 10% on VEGF2, 2% at HER1 (EGFR), -2% at HER2 and 7% at FGFR1. Moreover, in series [1], the IC50 is under 500 nM. For the same compound, the inhibition at 0.1 µM at mTOR (FRAP1) was found to be 93%.

For `O=C(NCCO)Nc1ccc(-c2nc(N3CCOCC3)c3cccn3n2)cc1` [Example 29], the inhibition at 1 µM on VEGF2 is 11%; on HER1 (EGFR), -1%; on HER2, -7%; at FGFR1, -1%. Also, in series [1], the IC50 was under 500 nM. Further, the inhibition at 0.1 µM on PI3Kα was found to be 9%; at mTOR (FRAP1), 94%. In addition, the CL in series [3] (PO 10 mg/kg) is recorded as 5.94 L/h/kg. For the same compound, the area under the curve AUC(0-t) in series [3] (blood, IV 5 mg/kg) was 16600 ng·h/mL; in series [3] (blood, PO 10 mg/kg) it was 1650 ng·h/mL. Moreover, the Cmax in [3] (blood, IV 5 mg/kg) was determined as 11900 ng/mL; in series [3] (blood, PO 10 mg/kg) it was 380 ng/mL. Further, the MRT was found to be 1.84 h in series [3] (blood, IV 5 mg/kg) and 2.9 h in [3] (blood, PO 10 mg/kg). The compound also gave a clearance in series [3] (blood, IV 5 mg/kg) of 4.83 mL/min/kg. In addition, the half-life was 89.4 min in series [3] (blood, IV 5 mg/kg) and 67.2 min in series [3] (blood, PO 10 mg/kg). For the same compound, the time to peak (Tmax) in series [3] (blood, PO 10 mg/kg) amounted to 2 h. For the same compound, the bioavailability in series [3] (blood, PO 10 mg/kg vs IV 5 mg/kg, read-out: Fpo (oral bioavailability)) came out at 5%. Also, the “metabolic stability in HLM” value in series [2] is on record as “metabolically stable”.

As to `CN1CCN(C(=O)c2ccc(NC(=O)Nc3ccc(-c4nc(N5CCOCC5)c5ccc(C(F)(F)F)n5n4)cc3)cc2)CC1` [Example 65], the inhibition at 0.1 µM at PI3Kα amounted to 19%; on mTOR (FRAP1) it was 63%.

As for `O=C(Nc1ccc(C(=O)NCCN2CCOCC2)cc1)Nc1ccc(-c2nc(N3CCOCC3)c3cccn3n2)cc1` [Example 48], the figures for the inhibition at 0.1 µM at PI3Kα and at mTOR (FRAP1) were -15% and 69%, respectively.

Turning to `C[C@@H]1COCCN1c1nc(-c2ccc(NC(=O)Nc3cccnc3)cc2)nn2cccc12` [Example 17], on PI3Kα, the inhibition at 0.1 µM was 25%.

As to `CN(C)C1CCN(C(=O)c2ccc(NC(=O)Nc3ccc(-c4nc(N5CCOCC5)c5ccc(C(F)(F)F)n5n4)cc3)cc2)CC1` [Example 64], in series [1], the half-inhibitory concentration (IC50) was under 500 nM. For the same compound, the inhibition at 0.1 µM at mTOR (FRAP1) was determined as 62%. For the same compound, in series [2], the “metabolic stability in HLM” value was “metabolically stable”.

`O=C(Nc1ccc(-c2nc(N3CCOCC3)c3ccc(C(F)(F)F)n3n2)cc1)Nc1cccnc1` [Example 62]: the inhibition at 0.1 µM on PI3Kα is 10%; on mTOR (FRAP1), 53%.

`CC(C)(C)C(=O)OCCNC(=O)Nc1ccc(-c2nc(N3C[C@H]4CC[C@@H](C3)O4)c3cccn3n2)cc1` [Example 133]: the inhibition at 1 µM worked out at 9% on VEGF2, 1% on HER1 (EGFR), 5% at HER2 and 4% at FGFR1. Moreover, the inhibition at 0.1 µM at mTOR (FRAP1) worked out at 90%.

As to `C[C@@H](CO)NC(=O)Nc1ccc(-c2nc(N3CCOCC3)c3cccn3n2)cc1` [Example 52], the inhibition at 0.1 µM on PI3Kα turned out to be 6%; on mTOR (FRAP1), 74%.

Consider `CN(C)CCCNC(=O)c1ccc(NC(=O)Nc2ccc(-c3nc(N4CCOCC4)c4cccn4n3)cc2)cc1` [Example 47], for which the inhibition at 1 µM is 10% on VEGF2, 1% at HER1 (EGFR), -5% at HER2 and 6% on FGFR1. For the same compound, the inhibition at 0.1 µM on mTOR (FRAP1) is 89%.

Turning to `O=C(Nc1ccc(C(=O)N2CC(O)C2)cc1)Nc1ccc(-c2nc(N3CCOCC3)c3cccn3n2)cc1` [Example 54], the inhibition at 1 µM at VEGF2 was 7%; on HER1 (EGFR), -1%; at HER2, 4%; on FGFR1, -4%. For the same compound, in series [1], the concentration for half-maximal inhibition (IC50) was under 500 nM. In addition, on mTOR (FRAP1), the inhibition at 0.1 µM came to 95%.

Consider `O=C(Nc1ccncc1)Nc1ccc(-c2nc(N3CCOCC3)c3cccn3n2)cc1` [Example 18], for which, on PI3Kα, the inhibition at 0.1 µM is -13%.

Take `O=C(Nc1ccc(C(=O)N2CC[C@@H](O)C2)cc1)Nc1ccc(-c2nc(N3CCOCC3)c3cccn3n2)cc1` [Example 67]: the concentration for half-maximal inhibition (IC50) in series [1] was under 500 nM. Moreover, the inhibition at 0.1 µM on mTOR (FRAP1) is 87%. The “metabolic stability in HLM” value in series [2] is “metabolically stable”.
